Measured values from EP4722207A1, “OXOISOINDOLINYL-SUBSTITUTED TETRAHYDROPYRIMIDINEDIONE DERIVATIVE AND USE THEREOF” (Gluetacs Therapeutics (Shanghai) Co., Ltd., priority 2023, dated 2024).

Assays:
WEE1 = biological target: T1, WEE1 (Homo sapiens, UniProt P30291+Q96SW2); assay: Western-blot assay, substrate protein degradation in hPBMCs: WEE1; type: cell-based; conditions: for substrate protein remaining % WEE1: 24 hours of compound treatment, 50 nM and 500 nM; for WEE1 substrate protein remaining %: compounds at 50 nM and 500 nM, 24 hours
T1 construct: effects of the compounds of the present disclosure on the expression of target proteins in cells; endogenous in cells; host or cells: human PBMCs (hPBMCs)
T1 sequence (P30291 whole entry): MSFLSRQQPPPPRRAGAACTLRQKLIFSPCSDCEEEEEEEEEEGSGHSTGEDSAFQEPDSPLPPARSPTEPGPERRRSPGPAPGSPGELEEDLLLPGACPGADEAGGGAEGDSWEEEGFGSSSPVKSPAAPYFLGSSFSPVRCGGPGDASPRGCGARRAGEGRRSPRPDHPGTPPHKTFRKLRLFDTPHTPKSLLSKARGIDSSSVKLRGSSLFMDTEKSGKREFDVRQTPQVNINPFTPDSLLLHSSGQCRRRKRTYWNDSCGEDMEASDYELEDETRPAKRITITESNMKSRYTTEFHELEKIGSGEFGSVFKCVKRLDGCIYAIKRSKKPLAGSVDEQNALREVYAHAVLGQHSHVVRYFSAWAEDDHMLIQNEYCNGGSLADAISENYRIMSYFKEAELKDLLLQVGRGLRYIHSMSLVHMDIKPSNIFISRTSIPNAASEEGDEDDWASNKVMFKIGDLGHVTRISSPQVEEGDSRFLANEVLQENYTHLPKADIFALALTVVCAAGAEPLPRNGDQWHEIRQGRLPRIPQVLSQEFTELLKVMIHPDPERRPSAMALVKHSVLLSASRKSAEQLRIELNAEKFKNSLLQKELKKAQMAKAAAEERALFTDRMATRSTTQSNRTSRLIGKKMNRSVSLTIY
T1 sequence (Q96SW2 whole entry): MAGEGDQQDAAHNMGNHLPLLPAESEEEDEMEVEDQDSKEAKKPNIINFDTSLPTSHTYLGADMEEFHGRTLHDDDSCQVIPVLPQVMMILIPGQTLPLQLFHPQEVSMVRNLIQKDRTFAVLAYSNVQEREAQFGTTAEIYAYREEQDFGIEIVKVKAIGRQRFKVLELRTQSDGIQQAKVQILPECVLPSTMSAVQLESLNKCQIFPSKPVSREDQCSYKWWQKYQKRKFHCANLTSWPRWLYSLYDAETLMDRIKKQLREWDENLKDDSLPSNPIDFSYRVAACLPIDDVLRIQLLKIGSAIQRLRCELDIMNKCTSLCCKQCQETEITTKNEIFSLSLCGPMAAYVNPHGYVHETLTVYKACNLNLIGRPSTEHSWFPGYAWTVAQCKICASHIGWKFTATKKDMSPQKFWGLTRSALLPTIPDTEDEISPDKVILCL
T1 sequence (Q16531 whole entry partner): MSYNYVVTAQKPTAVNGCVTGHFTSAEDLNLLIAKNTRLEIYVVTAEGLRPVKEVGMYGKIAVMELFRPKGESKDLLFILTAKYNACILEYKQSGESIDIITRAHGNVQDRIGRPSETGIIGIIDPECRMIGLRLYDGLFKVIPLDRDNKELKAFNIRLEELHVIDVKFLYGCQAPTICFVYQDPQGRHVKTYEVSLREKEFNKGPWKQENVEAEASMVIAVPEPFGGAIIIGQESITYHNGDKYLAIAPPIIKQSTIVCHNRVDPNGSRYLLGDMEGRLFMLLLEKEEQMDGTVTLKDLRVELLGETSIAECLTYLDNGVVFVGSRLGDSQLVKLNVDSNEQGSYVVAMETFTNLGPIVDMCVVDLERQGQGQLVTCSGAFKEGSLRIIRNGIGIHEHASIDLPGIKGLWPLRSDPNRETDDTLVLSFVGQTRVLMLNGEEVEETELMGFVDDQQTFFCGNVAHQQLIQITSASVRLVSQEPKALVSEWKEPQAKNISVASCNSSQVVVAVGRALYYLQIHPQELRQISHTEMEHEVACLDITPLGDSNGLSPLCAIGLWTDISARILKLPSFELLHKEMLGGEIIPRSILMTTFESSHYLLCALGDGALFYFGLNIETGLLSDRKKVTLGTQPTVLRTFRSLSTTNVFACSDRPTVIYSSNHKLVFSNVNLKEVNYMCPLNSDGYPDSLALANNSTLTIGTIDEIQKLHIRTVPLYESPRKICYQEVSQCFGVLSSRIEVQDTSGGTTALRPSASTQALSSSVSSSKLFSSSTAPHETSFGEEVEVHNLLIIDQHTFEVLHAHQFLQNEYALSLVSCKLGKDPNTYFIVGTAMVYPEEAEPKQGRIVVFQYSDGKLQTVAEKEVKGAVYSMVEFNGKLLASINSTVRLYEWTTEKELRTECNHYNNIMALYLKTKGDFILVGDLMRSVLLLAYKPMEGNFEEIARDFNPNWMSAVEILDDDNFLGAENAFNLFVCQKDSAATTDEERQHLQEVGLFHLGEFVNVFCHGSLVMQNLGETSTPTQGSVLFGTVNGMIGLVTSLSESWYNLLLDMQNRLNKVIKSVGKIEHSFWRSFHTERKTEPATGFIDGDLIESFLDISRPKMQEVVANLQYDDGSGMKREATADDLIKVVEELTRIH

IKZF1 = biological target: T2, IKZF1 (Homo sapiens, UniProt Q13422+Q96SW2); assay: Western-blot assay, substrate protein degradation in hPBMCs: IKZF1; type: cell-based; conditions: for substrate protein remaining % IKZF1: 24 hours of compound treatment, 50 nM and 500 nM; for IKZF1 substrate protein remaining %: compounds at 50 nM and 500 nM, 24 hours
T2 construct: effects of the compounds of the present disclosure on the expression of target proteins in cells; endogenous in cells; host or cells: human PBMCs (hPBMCs)
T2 sequence (Q13422 whole entry): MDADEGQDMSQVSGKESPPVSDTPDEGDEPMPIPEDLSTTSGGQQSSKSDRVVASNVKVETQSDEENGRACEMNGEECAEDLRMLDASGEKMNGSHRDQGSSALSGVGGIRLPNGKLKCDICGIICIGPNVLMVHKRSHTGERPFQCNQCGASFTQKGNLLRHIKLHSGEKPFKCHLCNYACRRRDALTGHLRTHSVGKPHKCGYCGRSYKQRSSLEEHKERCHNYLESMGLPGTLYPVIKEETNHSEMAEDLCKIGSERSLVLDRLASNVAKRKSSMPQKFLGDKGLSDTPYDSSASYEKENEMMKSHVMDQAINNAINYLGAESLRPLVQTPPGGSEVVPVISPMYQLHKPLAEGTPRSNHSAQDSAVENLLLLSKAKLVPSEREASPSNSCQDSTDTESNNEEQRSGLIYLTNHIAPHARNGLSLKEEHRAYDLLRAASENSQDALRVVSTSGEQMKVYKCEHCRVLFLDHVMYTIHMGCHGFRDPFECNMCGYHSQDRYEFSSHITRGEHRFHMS
T2 sequence (Q96SW2 whole entry): as the sequence (Q96SW2 whole entry) above
T2 sequence (Q16531 whole entry partner): as the sequence (Q16531 whole entry partner) above

IKZF2 = biological target: T3, IKZF2 (Homo sapiens, UniProt Q96SW2+Q9UKS7); assay: Western-blot assay, substrate protein degradation in hPBMCs: IKZF2; type: cell-based; conditions: for substrate protein remaining % IKZF2: 24 hours of compound treatment, 50 nM and 500 nM; for IKZF2 substrate protein remaining %: compounds at 50 nM and 500 nM, 24 hours
T3 construct: effects of the compounds of the present disclosure on the expression of target proteins in cells; endogenous in cells; host or cells: human PBMCs (hPBMCs)
T3 sequence (Q9UKS7 whole entry): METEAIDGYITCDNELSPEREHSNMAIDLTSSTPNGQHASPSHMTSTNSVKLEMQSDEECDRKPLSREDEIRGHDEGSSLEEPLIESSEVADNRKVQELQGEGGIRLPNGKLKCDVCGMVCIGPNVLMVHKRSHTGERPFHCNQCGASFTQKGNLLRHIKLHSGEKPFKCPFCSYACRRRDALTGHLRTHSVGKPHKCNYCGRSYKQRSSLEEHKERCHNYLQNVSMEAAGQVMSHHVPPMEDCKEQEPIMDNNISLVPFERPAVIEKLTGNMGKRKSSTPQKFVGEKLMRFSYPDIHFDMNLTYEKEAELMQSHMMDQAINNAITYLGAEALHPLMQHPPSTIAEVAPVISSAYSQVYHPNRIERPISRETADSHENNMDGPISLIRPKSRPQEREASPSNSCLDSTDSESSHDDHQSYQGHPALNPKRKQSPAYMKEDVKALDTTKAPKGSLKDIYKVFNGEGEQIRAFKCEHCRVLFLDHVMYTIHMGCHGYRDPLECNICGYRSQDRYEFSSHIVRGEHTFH
T3 sequence (Q96SW2 whole entry): as the sequence (Q96SW2 whole entry) above
T3 sequence (Q16531 whole entry partner): as the sequence (Q16531 whole entry partner) above

IKZF3 = biological target: T4, IKZF3 (Homo sapiens, UniProt Q96SW2+Q9UKT9); assay: Western-blot assay, substrate protein degradation in hPBMCs: IKZF3; type: cell-based; conditions: for substrate protein remaining % IKZF3: 24 hours of compound treatment, 50 nM and 500 nM; for IKZF3 substrate protein remaining %: compounds at 50 nM and 500 nM, 24 hours
T4 construct: effects of the compounds of the present disclosure on the expression of target proteins in cells; endogenous in cells; host or cells: human PBMCs (hPBMCs)

CK1α = biological target: T5, CK1α (Homo sapiens, UniProt P48729+Q96SW2); assay: Western-blot assay, substrate protein degradation in hPBMCs: CK1α; type: cell-based; conditions: for substrate protein remaining % CK1α: 24 hours of compound treatment, 50 nM and 500 nM; for CK1α substrate protein remaining %: compounds at 50 nM and 500 nM, 24 hours
T5 construct: effects of the compounds of the present disclosure on the expression of target proteins in cells; endogenous in cells; host or cells: human PBMCs (hPBMCs)
T5 sequence (P48729 whole entry): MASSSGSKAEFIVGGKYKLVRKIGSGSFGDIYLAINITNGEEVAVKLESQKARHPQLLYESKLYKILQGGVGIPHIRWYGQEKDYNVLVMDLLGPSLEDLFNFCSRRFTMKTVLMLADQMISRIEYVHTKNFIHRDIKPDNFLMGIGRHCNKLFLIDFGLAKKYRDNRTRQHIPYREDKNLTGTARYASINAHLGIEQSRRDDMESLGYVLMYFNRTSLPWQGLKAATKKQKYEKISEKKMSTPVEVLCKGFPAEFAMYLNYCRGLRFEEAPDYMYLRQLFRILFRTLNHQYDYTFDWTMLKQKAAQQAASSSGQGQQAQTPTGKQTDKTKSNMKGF
T5 sequence (Q96SW2 whole entry): as the sequence (Q96SW2 whole entry) above
T5 sequence (Q16531 whole entry partner): as the sequence (Q16531 whole entry partner) above

GSPT1 = biological target: T6, GSPT1 (Homo sapiens, UniProt P15170+Q96SW2); assay: Western-blot assay, substrate protein degradation in hPBMCs: GSPT1; type: cell-based; conditions: for substrate protein remaining % GSPT1: 24 hours of compound treatment, 50 nM and 500 nM; for GSPT1 substrate protein remaining %: compounds at 50 nM and 500 nM, 24 hours
T6 construct: effects of the compounds of the present disclosure on the expression of target proteins in cells; endogenous in cells; host or cells: human PBMCs (hPBMCs)
T6 sequence (P15170 whole entry): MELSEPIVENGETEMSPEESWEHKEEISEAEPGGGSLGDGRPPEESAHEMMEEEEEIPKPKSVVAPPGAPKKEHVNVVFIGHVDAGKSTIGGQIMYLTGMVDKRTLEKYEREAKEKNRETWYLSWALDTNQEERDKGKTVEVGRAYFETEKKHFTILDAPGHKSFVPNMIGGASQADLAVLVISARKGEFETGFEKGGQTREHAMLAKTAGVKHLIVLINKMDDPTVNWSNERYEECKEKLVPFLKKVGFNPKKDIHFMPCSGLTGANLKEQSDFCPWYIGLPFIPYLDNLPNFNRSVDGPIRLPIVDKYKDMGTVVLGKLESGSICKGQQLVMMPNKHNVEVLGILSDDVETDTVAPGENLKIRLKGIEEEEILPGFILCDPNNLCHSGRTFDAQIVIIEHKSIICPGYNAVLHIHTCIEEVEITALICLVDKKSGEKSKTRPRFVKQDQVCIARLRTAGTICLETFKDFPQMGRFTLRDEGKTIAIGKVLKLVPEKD
T6 sequence (Q96SW2 whole entry): as the sequence (Q96SW2 whole entry) above
T6 sequence (Q16531 whole entry partner): as the sequence (Q16531 whole entry partner) above

H292 = assay: Cell viability assay (CellTiter-Meiluncell Luminescent), tumor cell proliferation, H292; conditions: Homo sapiens, NCI-H292, 96 h; for inhibition at 0.01 µM: read-out: Inhibition Rate at 10 nM (%); for inhibition at 0.5 µM: read-out: Inhibition Rate at 500 nM (%)
MDA-MB-231 = assay: Cell viability assay (CellTiter-Meiluncell Luminescent), tumor cell proliferation, MDA-MB-231; conditions: Homo sapiens, MDA-MB-231, 96 h; for inhibition at 0.01 µM: read-out: Inhibition Rate at 10 nM (%); for inhibition at 0.5 µM: read-out: Inhibition Rate at 500 nM (%)
Procedure: (§1) The tumor cells used herein were cultured in a cell culture medium listed in table 2 at 37°C in an incubator with 5% CO2. Prior to experimentation, all cell lines used were correctly identified by STR profiling, and tested negative for mycoplasma contamination using a mycoplasma detection kit through routine screenings.
(§2) On the following day, the test compounds of the present disclosure were subjected to serial dilution. […] Subsequently, 0.5 µL of the test compound dilution was transferred into the 96-well plate containing the cells, with each well containing 100 µL of cell culture medium. […] Into the 96-well plate, the diluted test compounds and corresponding detection reagents were added, resulting in final test compound concentrations of 500 nM and 10 nM, respectively. The experimental procedure is described below using the diluted 2 µM test compound as an example.
(§3) After the cells were treated with the compounds of the present disclosure for a specified period, the cell viability assay reagent was added to the culture medium according to the kit's instructions to determine cell viability. […] All controls were treated using the same procedure as the compounds of the present disclosure. The growth inhibition curves for the compounds of the present disclosure were plotted using Prism GraphPad software, and the IC50 values were calculated therefrom.

MV-4-11 = assay: Cell viability assay (CellTiter-Meiluncell Luminescent), tumor cell proliferation, MV-4-11; conditions: Homo sapiens, MV4-11, 96 h; for inhibition at 0.01 µM: read-out: Inhibition Rate at 10 nM (%); for inhibition at 0.5 µM: read-out: Inhibition Rate at 500 nM (%); for IC50: read-out: inhibitory activity (IC50, nM) against tumor cells proliferation, MV-4-11
Procedure: as §1, §2, §3

Row | IC50 (MV-4-11) [nM] | Compound | substrate protein remaining % WEE1 (WEE1) | substrate protein remaining % IKZF1 (IKZF1) | substrate protein remaining % IKZF2 (IKZF2) | substrate protein remaining % IKZF3 (IKZF3) | substrate protein remaining % CK1α (CK1α) | substrate protein remaining % GSPT1 (GSPT1) | inhibition at 0.01 µM (H292) [%] | inhibition at 0.5 µM (H292) [%] | inhibition at 0.01 µM (MDA-MB-231) [%] | inhibition at 0.5 µM (MDA-MB-231) [%] | inhibition at 0.01 µM (MV-4-11) [%] | inhibition at 0.5 µM (MV-4-11) [%] | WEE1 substrate protein remaining % (WEE1) | IKZF1 substrate protein remaining % (IKZF1) | IKZF2 substrate protein remaining % (IKZF2) | IKZF3 substrate protein remaining % (IKZF3) | CK1α substrate protein remaining % (CK1α) | GSPT1 substrate protein remaining % (GSPT1)
1 | – | Cc1csc2ncnc(C3=CCN(Cc4ccc5c(c4)CN(N4CCC(=O)NC4=O)C5=O)CC3)c12 [GT-08117, 1-(5-((4-(5-methylthieno[2,3-d]pyrimidin-4-yl)-3,6-dihydropyridin-1(2H)-yl)methyl)-1-oxoisoindolin-2-yl)dihydropyrimidine-2,4(1H,3H)-dione] | B (80%< substrate protein remaining %≤ 100%) | B (80%< substrate protein remaining %≤ 100%) | B (80%< substrate protein remaining %≤ 100%) | A (0% ≤ substrate protein remaining % ≤ 80%) | A (0% ≤ substrate protein remaining % ≤ 80%) | A (0% ≤ substrate protein remaining % ≤ 80%) | 20 to 40 | 20 to 40 | 18 to 25 | 18 to 25 | – | – | – | – | – | – | – | –
2 | – | Cc1nc(C2CCN(Cc3ccc4c(c3)CN(N3CCC(=O)NC3=O)C4=O)CC2)c2c3c(sc2n1)CCC3 [GT-08114, 1-(5-((4-(2-methyl-6,7-dihydro-5H-cyclopenta[4,5]thieno[2,3-d]pyrimidin-4-yl)piperidin-1-yl)methyl)-1-oxoisoindolin-2-yl)dihydropyrimidine-2,4(1H,3H)-dione] | B (80%< substrate protein remaining %≤ 100%) | B (80%< substrate protein remaining %≤ 100%) | B (80%< substrate protein remaining %≤ 100%) | B (80%< substrate protein remaining %≤ 100%) | B (80%< substrate protein remaining %≤ 100%) | A (0% ≤ substrate protein remaining % ≤ 80%) | 20 to 40 | 10 to 15 | 18 to 25 | 18 to 25 | – | – | – | – | – | – | – | –
3 | – | CC1(C)[C@@H]2CC[C@]1(CS(=O)(=O)NCc1ccc3c(c1)C(=O)N(N1CCC(=O)NC1=O)C3=O)C(=O)C2 [GT-07998, 1-((1R,4R)-7,7-dimethyl-2-oxobicyclo[2.2.1]heptan-1-yl)-N-((2-(2,4-dioxotetrahydropyrimidin-1(2H)-yl)-1,3-dioxoisoindolin-5-yl)methyl)methanesulfonamide] | – | – | – | – | – | – | 15 to 20 | 1 to 5 | 25 to 40 | 10 to 15 | – | – | – | – | – | – | – | –
4 | – | Cc1nc(N2CCN(Cc3ccc4c(c3)CN(N3CCC(=O)NC3=O)C4=O)CC2)c2c3c(sc2n1)CCCC3 [GT-08068, 1-(5-((4-(2-methyl-5,6,7,8-tetrahydrobenzo[4,5]thieno[2,3-d]pyrimidin-4-yl)piperazin-1-yl)methyl)-1-oxoisoindolin-2-yl)dihydropyrimidine-2,4(1H,3H)-dione] | B (80%< substrate protein remaining %≤ 100%) | B (80%< substrate protein remaining %≤ 100%) | A (0% ≤ substrate protein remaining % ≤ 80%) | B (80%< substrate protein remaining %≤ 100%) | A (0% ≤ substrate protein remaining % ≤ 80%) | B (80%< substrate protein remaining %≤ 100%) | 20 to 40 | 20 to 40 | – | – | 18 to 25 | 18 to 25 | – | – | – | – | – | –
5 | – | Cc1cc2c(C3CCN(Cc4ccc5c(c4)C(=O)N(N4CCC(=O)NC4=O)C5=O)CC3)ncnc2s1 [GT-08107, 2-(2,4-dioxotetrahydropyrimidin-1(2H)-yl)-5-((4-(6-methylthieno[2,3-d]pyrimidin-4-yl)piperidin-1-yl)methyl)isoindoline-1,3-dione] | A (0% ≤ substrate protein remaining % ≤ 80%) | A (0% ≤ substrate protein remaining % ≤ 80%) | A (0% ≤ substrate protein remaining % ≤ 80%) | A (0% ≤ substrate protein remaining % ≤ 80%) | A (0% ≤ substrate protein remaining % ≤ 80%) | A (0% ≤ substrate protein remaining % ≤ 80%) | 5 to 10 | 10 to 15 | – | – | 30 to 40 | 40 to 60 | – | – | – | – | – | –
6 | – | Cc1csc2ncnc(N3CCN(Cc4ccc5c(c4)CN(N4CCC(=O)NC4=O)C5=O)CC3)c12 [GT-08058, 1-(5-((4-(5-methylthieno[2,3-d]pyrimidin-4-yl)piperazin-1-yl)methyl)-1-oxoisoindolin-2-yl)dihydropyrimidine-2,4(1H,3H)-dione] | B (80%< substrate protein remaining %≤ 100%) | A (0% ≤ substrate protein remaining % ≤ 80%) | B (80%< substrate protein remaining %≤ 100%) | B (80%< substrate protein remaining %≤ 100%) | B (80%< substrate protein remaining %≤ 100%) | B (80%< substrate protein remaining %≤ 100%) | – | – | 25 to 40 | 15 to 18 | – | – | – | – | – | – | – | –
7 | – | Cc1nc(N2CCN(Cc3ccc4c(c3)CN(N3CCC(=O)NC3=O)C4=O)CC2)c2ccsc2n1 [GT-08067, 1-(5-((4-(2-methylthieno[2,3-d]pyrimidin-4-yl)piperazin-1-yl)methyl)-1-oxoisoindolin-2-yl)dihydropyrimidine-2,4(1H,3H)-dione] | B (80%< substrate protein remaining %≤ 100%) | B (80%< substrate protein remaining %≤ 100%) | A (0% ≤ substrate protein remaining % ≤ 80%) | B (80%< substrate protein remaining %≤ 100%) | B (80%< substrate protein remaining %≤ 100%) | B (80%< substrate protein remaining %≤ 100%) | 20 to 40 | 20 to 40 | – | – | 60 to 80 | 40 to 60 | – | – | – | – | – | –
8 | – | Cc1cc2c(N3CCN(Cc4ccc5c(c4)C(=O)N(N4CCC(=O)NC4=O)C5=O)CC3)ncnc2s1 [GT-08092, 2-(2,4-dioxotetrahydropyrimidin-1(2H)-yl)-5-((4-(6-methylthieno[2,3-d]pyrimidin-4-yl)piperazin-1-yl)methyl)isoindoline-1,3-dione] | A (0% ≤ substrate protein remaining % ≤ 80%) | B (80%< substrate protein remaining %≤ 100%) | B (80%< substrate protein remaining %≤ 100%) | B (80%< substrate protein remaining %≤ 100%) | A (0% ≤ substrate protein remaining % ≤ 80%) | A (0% ≤ substrate protein remaining % ≤ 80%) | – | – | – | – | 10 to 18 | 30 to 40 | – | – | – | – | – | –
9 | 100 to 300 | O=C1CCN(N2Cc3cc(CN4CCN(c5ccccc5)CC4)ccc3C2=O)C(=O)N1 [GT-06696, 1-(1-oxo-5-((4-phenylpiperazin-1-yl)methyl)isoindolin-2-yl)dihydropyrimidine-2,4(1H,3H)-dione] | – | – | – | – | – | – | – | – | – | – | – | – | B ("B" is defined as 80%< substrate protein remaining %≤ 100%) | B ("B" is defined as 80%< substrate protein remaining %≤ 100%) | B ("B" is defined as 80%< substrate protein remaining %≤ 100%) | B ("B" is defined as 80%< substrate protein remaining %≤ 100%) | B ("B" is defined as 80%< substrate protein remaining %≤ 100%) | A ("A" is defined as 0% ≤ substrate protein remaining % ≤ 80%)
10 | 100 to 300 | COc1cccc(N2CCN(Cc3ccc4c(c3)CN(N3CCC(=O)NC3=O)C4=O)CC2)c1 [GT-06699, 1-(5-((4-(3-methoxyphenyl)piperazin-1-yl)methyl)-1-oxoisoindolin-2-yl)dihydropyrimidine-2,4(1H,3H)-dione] | – | – | – | – | – | – | – | – | – | – | – | – | B ("B" is defined as 80%< substrate protein remaining %≤ 100%) | B ("B" is defined as 80%< substrate protein remaining %≤ 100%) | B ("B" is defined as 80%< substrate protein remaining %≤ 100%) | B ("B" is defined as 80%< substrate protein remaining %≤ 100%) | B ("B" is defined as 80%< substrate protein remaining %≤ 100%) | A ("A" is defined as 0% ≤ substrate protein remaining % ≤ 80%)
11 | – | O=C1CCN(N2C(=O)c3ccc(CN4CCN(c5nccc(Cl)c5F)CC4)cc3C2=O)C(=O)N1 [GT-08190, 5-((4-(4-chloro-3-fluoropyridin-2-yl)piperazin-1-yl)methyl)-2-(2,4-dioxotetrahydropyrimidin-1(2H)-yl)isoindoline-1,3-dione] | – | – | – | – | – | – | 20 to 40 | 20 to 40 | 18 to 25 | 10 to 15 | – | – | – | – | – | – | – | –
